Results: patent US8969565B2, “Imidazo[1,2-b]pyridazine-based compounds, compositions comprising them, and methods of their use” (Lexicon Pharmaceuticals, Inc., priority 2012, dated 2015)

Biological target: T1, AAK1 (Homo sapiens, UniProt Q2M2I8)
T1 construct: HA; expressed in transfected cells; host or cells: HEK293F
Experiment: HEK281 cell-based assay (phospho-mu2 Western blot in transfected HEK293F cells)
Conditions: 3 hours incubation, read-out: CBA IC50
Method in brief: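 HEK293F cells co-transfected with full-length human AAK1/HA and Flag/AP2M1 were treated next day with 5 compound concentrations (3-fold dilutions) in DMEM+0.5% FBS for 3 hours at 37° C. Lysates were Western blotted for phospho-mu2, with total mu2 detected by anti-Flag.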

T1 sequence (Q2M2I8 1-863 isoform Q2M2I8-2): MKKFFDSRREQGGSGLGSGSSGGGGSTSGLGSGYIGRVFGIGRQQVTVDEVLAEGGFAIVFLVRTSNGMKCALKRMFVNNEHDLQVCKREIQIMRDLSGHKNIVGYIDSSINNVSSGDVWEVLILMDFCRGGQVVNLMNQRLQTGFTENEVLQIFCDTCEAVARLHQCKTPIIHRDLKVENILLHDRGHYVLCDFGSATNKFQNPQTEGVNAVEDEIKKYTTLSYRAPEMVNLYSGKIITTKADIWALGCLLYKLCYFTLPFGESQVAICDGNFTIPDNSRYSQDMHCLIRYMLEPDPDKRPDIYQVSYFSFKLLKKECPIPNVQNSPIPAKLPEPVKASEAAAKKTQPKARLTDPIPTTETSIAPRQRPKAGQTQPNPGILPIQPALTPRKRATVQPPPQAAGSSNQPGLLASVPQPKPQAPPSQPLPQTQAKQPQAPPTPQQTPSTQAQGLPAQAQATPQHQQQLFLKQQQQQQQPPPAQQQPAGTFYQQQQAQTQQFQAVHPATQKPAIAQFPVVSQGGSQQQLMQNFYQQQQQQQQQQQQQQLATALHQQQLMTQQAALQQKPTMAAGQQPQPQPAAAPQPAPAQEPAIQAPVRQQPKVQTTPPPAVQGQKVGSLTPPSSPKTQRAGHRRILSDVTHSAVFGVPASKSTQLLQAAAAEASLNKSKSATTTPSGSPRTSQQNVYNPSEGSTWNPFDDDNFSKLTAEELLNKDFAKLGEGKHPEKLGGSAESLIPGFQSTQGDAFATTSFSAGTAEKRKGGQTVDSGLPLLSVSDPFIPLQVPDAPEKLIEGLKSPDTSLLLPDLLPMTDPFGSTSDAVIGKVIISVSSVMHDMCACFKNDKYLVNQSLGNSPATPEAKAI

Row | Structure (SMILES) | IC50
1 | NCCNC(=O)c1ccc(-c2cnc3ccc(NCCCc4ccccc4)nn23)cc1 [N-(2-aminoethyl)-4-(6-((3-phenylpropyl)amino)imidazo[1,2-b]pyridazin-3-yl)benzamide] | ≤ 1 µM
2 | COc1cnccc1-c1cnc2ccc(NCCOC(C)(C)C)nn12 [N-(2-(tert-butoxy)ethyl)-3-(3-methoxypyridin-4-yl)imidazo[1,2-b]pyridazin-6-amine] | ≤ 0.1 µM
3 | COCCCNc1ccc2ncc(-c3ccc(C(C)=O)s3)n2n1 [1-(5-(6-((3-methoxypropyl)amino)imidazo[1,2-b]pyridazin-3-yl)thiophen-2-yl)ethanone] | ≤ 1 µM
4 | COC(=O)N1CCC[C@H]1CNc1ccc2ncc(Br)n2n1 [(S)-methyl 2-(((3-bromoimidazo[1,2-b]pyridazin-6-yl)amino)methyl)pyrrolidine-1-carboxylate] | ≤ 1 µM
5 | COc1ccccc1-c1cnc2ccc(NCCN(C(=O)OC(C)C)C(C)C)nn12 [isopropyl isopropyl(2-((3-(2-methoxyphenyl)imidazo[1,2-b]pyridazin-6-yl)amino)ethyl)carbamate] | ≤ 0.1 µM
6 | CC(C)(C)OCCCNc1ccc2ncc(-c3ccc(CN)cc3)n2n1 [3-(4-(aminomethyl)phenyl)-N-(3-(tert-butoxy)propyl)imidazo[1,2-b]pyridazin-6-amine] | ≤ 0.1 µM
7 | COc1cnccc1-c1cnc2ccc(NC[C@@H]3CCCN3C(=O)OC(C)C)nn12 [(S)-isopropyl 2-(((3-(3-methoxypyridin-4-yl)imidazo[1,2-b]pyridazin-6-yl)amino)methyl)pyrrolidine-1-carboxylate] | ≤ 0.01 µM
8 | CN(CCNc1ccc2ncc(-c3ccc(C4CCCN4)cc3)n2n1)C(=O)OC(C)(C)C (stereo not drawn) [tert-butyl methyl(2-((3-(4-(pyrrolidin-2-yl)phenyl)imidazo[1,2-b]pyridazin-6-yl)amino)ethyl)carbamate] | ≤ 0.01 µM
9 | CCOC(=O)N(C)CCNc1ccc2ncc(-c3ccc(C(=O)NC)cc3)n2n1 [ethyl methyl(2-((3-(4-(methylcarbamoyl)phenyl)imidazo[1,2-b]pyridazin-6-yl)amino)ethyl)carbamate] | ≤ 0.1 µM
10 | CCCCNc1ccc2ncc(-c3ccc(C(=O)NCCN(C)C)cc3)n2n1 [4-(6-(butylamino)imidazo[1,2-b]pyridazin-3-yl)-N-(2-(dimethylamino)ethyl)benzamide] | ≤ 0.1 µM
11 | COc1ccccc1-c1cnc2ccc(NC[C@@H]3CCCN3C(=O)CC(C)C)nn12 [(S)-1-(2-(((3-(2-methoxyphenyl)imidazo[1,2-b]pyridazin-6-yl)amino)methyl)pyrrolidin-1-yl)-3-methylbutan-1-one] | ≤ 0.01 µM
12 | CC(C)OC(=O)N(C)CCNc1ccc2ncc(-c3ccc([C@@H]4CCCN4)cc3)n2n1 [(S)-isopropyl methyl(2-((3-(4-(pyrrolidin-2-yl)phenyl)imidazo[1,2-b]pyridazin-6-yl)amino)ethyl)carbamate] | ≤ 0.1 µM
13 | COc1ccccc1CCNc1ccc2ncc(-c3ccc(C(N)=O)cc3)n2n1 [4-(6-((2-methoxyphenethyl)amino)imidazo[1,2-b]pyridazin-3-yl)benzamide] | ≤ 0.01 µM
14 | CC(C)(C)OC(=O)N1CCC[C@H]1CNc1ccc2ncc(I)n2n1 [(S)-tert-butyl 2-(((3-iodoimidazo[1,2-b]pyridazin-6-yl)amino)methyl)pyrrolidine-1-carboxylate] | ≤ 0.01 µM
15 | CC(C)(C)OCCNc1ccc2ncc(-c3ccc(C4CCCN4)cc3)n2n1 (stereo not drawn) [N-(2-(tert-butoxy)ethyl)-3-(4-(pyrrolidin-2-yl)phenyl)imidazo[1,2-b]pyridazin-6-amine] | ≤ 0.1 µM
16 | CCCCNc1ccc2ncc(C(=O)Nc3cn[nH]c3)n2n1 [6-(butylamino)-N-(1H-pyrazol-4-yl)imidazo[1,2-b]pyridazine-3-carboxamide] | ≤ 1 µM
17 | CCCCNc1ccc2ncc(-c3ccc4c(c3)CNC4)n2n1 [N-butyl-3-(isoindolin-5-yl)imidazo[1,2-b]pyridazin-6-amine] | ≤ 1 µM
18 | COc1cnccc1-c1cnc2ccc(NCCOCC(C)C)nn12 [N-(2-isobutoxyethyl)-3-(3-methoxypyridin-4-yl)imidazo[1,2-b]pyridazin-6-amine] | ≤ 0.1 µM
19 | COc1ccccc1-c1cnc2ccc(NC[C@@H]3CCCN3C(C)=O)nn12 [(S)-1-(2-(((3-(2-methoxyphenyl)imidazo[1,2-b]pyridazin-6-yl)amino)methyl)pyrrolidin-1-yl)ethanone] | ≤ 0.1 µM
20 | CC(C)OC(=O)N(CCNc1ccc2ncc(-c3ccccc3)n2n1)C(C)C [isopropyl isopropyl(2-((3-phenylimidazo[1,2-b]pyridazin-6-yl)amino)ethyl)carbamate] | ≤ 0.1 µM
21 | CC(C)OCCNc1ccc2ncc(-c3ccc(C(=O)NCCN4CCCC4)cc3)n2n1 [4-(6-((2-isopropoxyethyl)amino)imidazo[1,2-b]pyridazin-3-yl)-N-(2-(pyrrolidin-1-yl)ethyl)benzamide] | ≤ 0.1 µM
22 | CCCCNc1ccc2ncc(-c3ccc(C(=O)NCCN)c(F)c3)n2n1 [N-(2-aminoethyl)-4-(6-(butylamino)imidazo[1,2-b]pyridazin-3-yl)-2-fluorobenzamide] | ≤ 0.1 µM
23 | COC(=O)N(CCNc1ccc2ncc(-c3ccncc3OC)n2n1)C(C)C [methyl isopropyl(2-((3-(3-methoxypyridin-4-yl)imidazo[1,2-b]pyridazin-6-yl)amino)ethyl)carbamate] | ≤ 0.01 µM

Next, values leading:

Row | IC50 | Structure (SMILES)
24 | ≤ 0.1 µM | NCc1ccc(-c2cnc3ccc(NCCCCF)nn23)cc1 [3-(4-(aminomethyl)phenyl)-N-(4-fluorobutyl)imidazo[1,2-b]pyridazin-6-amine]
25 | ≤ 1 µM | NCc1ccc(-c2cnc3ccc(NCC4CCOC4)nn23)cc1 (stereo not drawn) [3-(4-(aminomethyl)phenyl)-N-((tetrahydrofuran-3-yl)methyl)imidazo[1,2-b]pyridazin-6-amine]
26 | ≤ 1 µM | CCCCNc1ccc2ncc(-c3ccc(CNCC4CC4)cc3)n2n1 [N-butyl-3-(4-(((cyclopropylmethyl)amino)methyl)phenyl)imidazo[1,2-b]pyridazin-6-amine]
27 | ≤ 1 µM | NCc1ccc(-c2cnc3ccc(NCC4CCC4)nn23)cc1 [3-(4-(aminomethyl)phenyl)-N-(cyclobutylmethyl)imidazo[1,2-b]pyridazin-6-amine]
28 | ≤ 0.01 µM | CC(C)OC(=O)N1CCC[C@H]1CNc1ccc2ncc(-c3ccc(CN)cc3)n2n1 [(S)-isopropyl 2-(((3-(4-(aminomethyl)phenyl)imidazo[1,2-b]pyridazin-6-yl)amino)methyl)pyrrolidine-1-carboxylate]
29 | ≤ 0.1 µM | CN(CCNc1ccc2ncc(-c3ccc(CN)cc3)n2n1)c1ccccc1 [N1-(3-(4-(aminomethyl)phenyl)imidazo[1,2-b]pyridazin-6-yl)-N2-methyl-N2-phenylethane-1,2-diamine]
30 | ≤ 0.1 µM | NCc1ccc(-c2cnc3ccc(NC4COC5(CCCC5)C4)nn23)cc1 (stereo not drawn) [3-(4-(aminomethyl)phenyl)-N-(1-oxaspiro[4.4]nonan-3-yl)imidazo[1,2-b]pyridazin-6-amine]
31 | ≤ 0.01 µM | COc1ccccc1CCNc1ccc2ncc(-c3ccc(CN)cc3)n2n1 [3-(4-(aminomethyl)phenyl)-N-(2-methoxyphenethyl)imidazo[1,2-b]pyridazin-6-amine]
32 | ≤ 0.1 µM | NCc1ccc(-c2cnc3ccc(NCCCOC4CCCC4)nn23)cc1 [3-(4-(aminomethyl)phenyl)-N-(3-(cyclopentyloxy)propyl)imidazo[1,2-b]pyridazin-6-amine]
33 | ≤ 1 µM | NCc1ccc(-c2cnc3ccc(NCCCF)nn23)cc1 [3-(4-(aminomethyl)phenyl)-N-(3-fluoropropyl)imidazo[1,2-b]pyridazin-6-amine]
